Data as given in PubChem BioAssay (NCI).
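Results reflect a 48-hour exposure of cells in 96-well plates to compound at five concentrations. GI50 marks 50% less growth. TGI: concentration producing complete growth inhibition.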

Assays:
Assay in all cases: DTP human tumour cell line panel, 48 h
[1] = system: M14 melanoma
[2] = system: SK-MEL-5 melanoma
[3] = system: 786-0 renal
[4] = system: COLO 205 colon
[5] = system: PC-3 prostate
[6] = system: NCI-H226 lung
[7] = system: BT-549 breast
[8] = system: SF-295 CNS
[9] = system: MDA-MB-231 breast
[10] = system: HT29 colon
[11] = system: RPMI-8226 leukemia
[12] = system: CCRF-CEM leukemia
[13] = system: OVCAR-3 ovarian
[14] = system: U251 CNS
[15] = system: SK-OV-3 ovarian
[16] = system: HCT-116 colon
[17] = system: ACHN renal
[18] = system: HCC-2998 colon
[19] = system: SK-MEL-28 melanoma
[20] = system: NCI-H522 lung
[21] = system: SR leukemia
[22] = system: MCF7 breast
[23] = system: OVCAR-4 ovarian
[24] = system: HS 578T breast
[25] = system: NCI-H23 lung
[26] = system: SF-268 CNS
[27] = system: SN12C renal
[28] = system: EKVX NSCLC
[29] = system: MOLT-4 leukemia
[30] = system: UACC-62 melanoma
[31] = system: HCT-15 colon
[32] = system: SF-539 CNS
[33] = system: NCI-H460 lung
[34] = system: T-47D breast
[35] = system: HOP-92 NSCLC
[36] = system: TK-10 renal
[37] = system: RXF 393 renal
[38] = system: DU-145 prostate
[39] = system: KM12 colon
[40] = system: SNB-19 CNS
[41] = system: LOX IMVI melanoma
[42] = system: A498 renal
[43] = system: HL-60(TB) leukemia
[44] = system: SK-MEL-2 melanoma
[45] = system: CAKI-1 renal
[46] = system: HOP-62 NSCLC
[47] = system: SW-620 colon
[48] = system: SNB-75 CNS
[49] = system: A549 NSCLC
[50] = system: OVCAR-8 ovarian
[51] = system: NCI/ADR-RES ovarian
[52] = system: UO-31 renal
[53] = system: MDA-MB-435
[54] = system: MALME-3M melanoma
[55] = system: IGROV1 ovarian
[56] = system: OVCAR-5 ovarian
[57] = system: K-562 leukemia
[58] = system: UACC-257 melanoma

In the case of `CSc1nc2c(c(=O)n1C)C(c1ccccc1)C1=C(N2)/C(=C/c2ccccc2)CCC1` (stereo not drawn), the GI50 [1] is reported as 6.56 µM, the TGI [1] is reported as over 100 µM and the GI50 [2] is reported as 3.58 µM. For the same compound, the TGI [2] was over 100 µM, the GI50 [3] was 11.7 µM and the TGI [3] was 56.4 µM. The GI50 [4] was 10.3 µM, the TGI [4] was over 100 µM and the GI50 [5] was 7.11 µM. The TGI [5] was over 100 µM, the GI50 [6] was 18.4 µM and the TGI [6] was over 100 µM. For the same compound, the GI50 [7] was 11.9 µM, the TGI [7] was over 100 µM and the GI50 [8] was 4.67 µM. The TGI [8] was 34 µM, the GI50 [9] was 17.4 µM and the TGI [9] was over 100 µM. It also gave a GI50 [10] of 3.58 µM, a TGI [10] of 71 µM and a GI50 [11] of 5.31 µM. For the same compound, the TGI [11] was over 100 µM, the GI50 [12] was 4.62 µM and the TGI [12] was over 100 µM. It also gave a GI50 [13] of 4.41 µM, a TGI [13] of over 100 µM and a GI50 [14] of 3.99 µM. For the same compound, the TGI [14] was 34.9 µM, the GI50 [15] was 25.1 µM and the TGI [15] was 78.7 µM. It also gave a GI50 [16] of 3.41 µM, a TGI [16] of 14.3 µM and a GI50 [17] of 3.56 µM. For the same compound, the TGI [17] was 50.5 µM, the GI50 [18] was over 100 µM and the TGI [18] was over 100 µM. It also gave a GI50 [19] of over 100 µM, a TGI [19] of over 100 µM and a GI50 [20] of 5.93 µM. The TGI [20] was over 100 µM, the GI50 [21] was 1.89 µM and the TGI [21] was over 100 µM. The GI50 [22] was 7.72 µM, the TGI [22] was over 100 µM and the GI50 [23] was 30.8 µM. The TGI [23] was over 100 µM, the GI50 [24] was 10.2 µM and the TGI [24] was 93.8 µM. The GI50 [25] was 7.1 µM, the TGI [25] was over 100 µM and the GI50 [26] was 10.7 µM. It also gave a TGI [26] of over 100 µM, a GI50 [27] of 53 µM and a TGI [27] of over 100 µM. For the same compound, the GI50 [28] was 24.2 µM, the TGI [28] was over 100 µM and the GI50 [29] was 4.9 µM. It also gave a TGI [29] of over 100 µM, a GI50 [30] of 7.95 µM and a TGI [30] of over 100 µM. The GI50 [31] was 4.1 µM, the TGI [31] was over 100 µM and the GI50 [32] was 9.98 µM. For the same compound, the TGI [32] was 81.5 µM, the GI50 [33] was 9.87 µM and the TGI [33] was over 100 µM. It also gave a GI50 [34] of 4.15 µM, a TGI [34] of over 100 µM and a GI50 [35] of 36.6 µM. For the same compound, the TGI [35] was over 100 µM, the GI50 [36] was 20.9 µM and the TGI [36] was over 100 µM. The GI50 [37] was 2.35 µM, the TGI [37] was 6.21 µM and the GI50 [38] was 8.02 µM. It also gave a TGI [38] of over 100 µM, a GI50 [39] of 18.2 µM and a TGI [39] of over 100 µM. The GI50 [40] was 22.4 µM, the TGI [40] was over 100 µM and the GI50 [41] was 3.01 µM. For the same compound, the TGI [41] was 12.8 µM, the GI50 [42] was 16.8 µM and the TGI [42] was 88.4 µM. It also gave a GI50 [43] of 0.721 µM, a TGI [43] of 48.4 µM and a GI50 [44] of 9.48 µM. For the same compound, the TGI [44] was 42.6 µM, the GI50 [45] was 69 µM and the TGI [45] was over 100 µM. For the same compound, the GI50 [46] was 20 µM, the TGI [46] was over 100 µM and the GI50 [47] was 2.53 µM. For the same compound, the TGI [47] was 6.81 µM, the GI50 [48] was 11.3 µM and the TGI [48] was 29.7 µM. The GI50 [49] was over 100 µM, the TGI [49] was over 100 µM and the GI50 [50] was 3.97 µM. For the same compound, the TGI [50] was over 100 µM, the GI50 [51] was 4.07 µM and the TGI [51] was over 100 µM. The GI50 [52] was 1.69 µM, the TGI [52] was 30.7 µM and the GI50 [53] was 3.99 µM. The TGI [53] was over 100 µM, the GI50 [54] was 5.87 µM and the TGI [54] was over 100 µM. The GI50 [55] was 13.6 µM, the TGI [55] was over 100 µM and the GI50 [56] was 71.7 µM. It also gave a TGI [56] of over 100 µM, a GI50 [57] of 2.86 µM and a TGI [57] of over 100 µM. It also gave a GI50 [58] of 6.63 µM and a TGI [58] of over 100 µM.
`COc1ccc2nc3ccccc3c(NCCNCC(C)O)c2c1` (stereo not drawn) gave a GI50 [1] of 0.356 µM, a TGI [1] of 1.79 µM and a GI50 [2] of 1.03 µM. It also gave a TGI [2] of 2.3 µM, a GI50 [3] of 0.306 µM and a TGI [3] of 1.83 µM. It also gave a GI50 [4] of 0.192 µM, a TGI [4] of 0.704 µM and a GI50 [5] of 0.537 µM. The TGI [5] was 4.82 µM, the GI50 [6] was 0.708 µM and the TGI [6] was 4.79 µM. The GI50 [7] was 1.61 µM, the TGI [7] was 5.73 µM and the GI50 [8] was 0.36 µM. The TGI [8] was 4.02 µM, the GI50 [9] was 0.31 µM and the TGI [9] was 1.85 µM. For the same compound, the GI50 [10] was 0.323 µM, the TGI [10] was 1.9 µM and the GI50 [11] was 0.398 µM. For the same compound, the TGI [11] was 2.66 µM, the GI50 [12] was 0.436 µM and the TGI [12] was 3.47 µM. For the same compound, the GI50 [13] was 0.449 µM, the TGI [13] was 9.4 µM and the GI50 [14] was 0.549 µM. It also gave a TGI [14] of 4.94 µM, a GI50 [15] of 0.612 µM and a TGI [15] of 9.12 µM. It also gave a GI50 [16] of 0.241 µM, a TGI [16] of 1.41 µM and a GI50 [17] of 0.375 µM. For the same compound, the TGI [17] was 14.4 µM, the GI50 [18] was 0.519 µM and the TGI [18] was 2.37 µM. The GI50 [19] was 0.539 µM, the TGI [19] was 2.77 µM and the GI50 [20] was 0.427 µM. The TGI [20] was 2.09 µM, the GI50 [21] was 0.278 µM and the TGI [21] was 10.8 µM. For the same compound, the GI50 [22] was 0.315 µM, the TGI [22] was 4.14 µM and the GI50 [23] was 0.463 µM. For the same compound, the TGI [23] was 4.45 µM, the GI50 [24] was 1.1 µM and the TGI [24] was 12.2 µM. The GI50 [25] was 0.367 µM, the TGI [25] was 2.05 µM and the GI50 [26] was 0.583 µM. It also gave a TGI [26] of 11.1 µM, a GI50 [27] of 0.253 µM and a TGI [27] of 2.22 µM. The GI50 [28] was 1.1 µM, the TGI [28] was 7.82 µM and the GI50 [29] was 0.368 µM. For the same compound, the GI50 [30] was 0.354 µM, the TGI [30] was 2.08 µM and the GI50 [31] was 0.461 µM. It also gave a TGI [31] of 10.6 µM, a GI50 [32] of 0.435 µM and a TGI [32] of 2.04 µM. It also gave a GI50 [33] of 0.276 µM, a TGI [33] of 10.4 µM and a GI50 [34] of 0.465 µM. It also gave a TGI [34] of 6.27 µM, a GI50 [35] of 0.393 µM and a TGI [35] of 3.48 µM. The GI50 [36] was 0.54 µM, the TGI [36] was 6.04 µM and the GI50 [37] was 0.373 µM. For the same compound, the TGI [37] was 1.74 µM, the GI50 [38] was 0.516 µM and the TGI [38] was 14.7 µM. The GI50 [39] was 0.536 µM, the TGI [39] was 14.2 µM and the GI50 [40] was 0.391 µM. It also gave a TGI [40] of 10.3 µM, a GI50 [41] of 0.202 µM and a TGI [41] of 0.483 µM. It also gave a GI50 [42] of 0.0734 µM, a TGI [42] of 0.73 µM and a GI50 [43] of 0.492 µM. The TGI [43] was 4.26 µM, the GI50 [44] was 0.785 µM and the TGI [44] was 2.8 µM. The GI50 [45] was 0.434 µM, the TGI [45] was 11.4 µM and the GI50 [46] was 0.369 µM. The TGI [46] was 2.57 µM, the GI50 [47] was 0.3 µM and the TGI [47] was 12.5 µM. The GI50 [48] was 0.781 µM, the TGI [48] was 2.59 µM and the GI50 [50] was 0.441 µM. It also gave a TGI [50] of 11.9 µM, a GI50 [51] of 5.11 µM and a TGI [51] of 39.4 µM. For the same compound, the GI50 [52] was 0.398 µM, the TGI [52] was 2.39 µM and the GI50 [53] was 0.433 µM. It also gave a TGI [53] of 1.77 µM, a GI50 [54] of 0.426 µM and a TGI [54] of 1.72 µM. For the same compound, the GI50 [55] was 0.387 µM, the TGI [55] was 5.93 µM and the GI50 [56] was 0.377 µM. It also gave a TGI [56] of 5.01 µM, a GI50 [57] of 0.33 µM and a GI50 [58] of 0.81 µM. The TGI [58] was 3.84 µM.
